Reference: patent publication US20230263742A1, “A LIPID” (Stemirna Therapeutics Co., Ltd., priority 2021, published 2023)

Assays:
[1] = Particle size, PDI and zeta potential by dynamic light scattering; type: physicochemical; conditions: for PDI / Zeta potential: Luc mRNA-LNP 50:10:38.5:1.5; for Size: Luc mRNA-LNP, lipid:phospholipid:cholesterol:PEG-DMG 50:10:38.5:1.5
Protocol: A Zetasizer Nano ZS (Malvern Instruments Ltd, Malvern, Worcestershire, UK) can be used to determine the particle size, the polydispersity index (PDI) and the zeta (ζ) potential of the nanoparticle compositions in 1×PBS in determining particle size and 15 mM PBS in determining zeta (ζ) potential.
The evaluation method of particle size and zeta potential: 50 μL LNP sample was diluted with 950 μL purified water to obtain the diluted LNP sample. The sample was placed in a dynamic light scattering laser particle size analyzer (Malvern, ZS-90) for testing.

[2] = tested on: cells; experiment: Cytotoxicity, CCK-8 cell viability; type: cell-based; conditions: 200 ng LNP, 24 h, CCK-8, vs cells blank
Protocol: Evaluation method of cytotoxicity: 200 ng of LNP samples were mixed with cells and incubated for 24 h, then the viability was detected using CCK-8 cell viability detection kit. 10 μl of CCK-8 detection reagent was added to the transfected cells and the OD value was detected using a microplate reader at a detection wavelength of 450 nm. The cell viability percentage is obtained by comparing the OD value with that of the cells blank.

[3] = tested on: C2C12 cells; experiment: In vitro cell Luc expression, C2C12; type: cell-based; conditions: 100 ng Luc mRNA-LNP, 24 h
Protocol: (§1) In vitro cell expression evaluation method: C2C12 cells, HepG2 cells, A20 cells were cultured, and 100,000 cells per well were plated on a 96-well plate. 100 ng of LNP samples were mixed with the cells and incubated for 24 hours (n=3), and then the expression was detected using luciferase quantitative kit 24 h after administration.

[4] = tested on: A20 cells; experiment: In vitro cell Luc expression, A20; type: cell-based; conditions: 100 ng Luc mRNA-LNP, 24 h
Protocol: as §1

[5] = tested on: Balb/C mice; experiment: In vivo Luc expression after tail vein injection of Luc mRNA-LNP; conditions: 5 μg Luc mRNA-LNP tail vein, 6 hours
Protocol: In vivo expression evaluation method: 5 μg Luc (luciferase) mRNA-LNP solution of SW-II-118, SW-120, or SW-121 were injected into the tail vein of Balb/C mice. 6 hours after the administration, the mice are injected 0.15 mg/kg of […] substrate intraperitoneally. Within 15 minutes after the injection of the substrate, the fluorescence signal intensity was tested under a small animal in vivo imaging instrument.

[6] = tested on: Balb/C mice; experiment: In vivo Luc expression after intramuscular injection, compared with MC3 (Example 4); conditions: 5 μg Luc mRNA-LNP (DSPC) intramuscularly, Balb/C mice n=3, 6 hours
Protocol: The mRNA nanoparticle compositions of SW-II-118, SW-120, and SW-121 were prepared according to the method provided in Example 3. The ratios of the lipids were 50:10:38.5:1.5 mol % for cationic lipid: DSPC: cholesterol: PEG-DMG. The cationic lipid MC3 was a current standard in the art. Accordingly, the standard MC3 formulation including 50 mol % MC3, 10 mol % DSPC, 38.5 mol % cholesterol, and 1.5 mol % PEG-DMG was used as a reference for this study.
5 μg of Luc mRNA-LNP of MC3, SW-II-118, SW-II-120, or SW-II-121 was intramuscularly injected into Balb/C mice (n=3). 6 hours after the administration, the mice were injected intraperitoneally with 0.15 mg/kg […] substrate. 15 minutes after the injection of the substrate, the fluorescence signal intensity was tested under a small animal in vivo imaging instrument.

[7] = tested on: Balb/C mice; experiment: Luc expression in injection site and liver site after intramuscular administration (Example 5); type: in vivo; conditions: 5 μg Luc mRNA-LNP (DSPC) intramuscularly, Balb/C mice n=3, 6 h
Protocol: Further bioluminescence studies were performed to investigate the delivery efficiency of nanoparticle compositions including various lipid compounds according to the present invention. The formulations containing reference cationic lipid M62, M63, M118, and M119 (corresponding to Compound 62, 63, 118, and 119 in PCT/US2018/022717 (WO2018/170306), respectively) were evaluated for comparison. Nanoparticle compositions including DSPC as an optimized phospholipid, cholesterol as a structural lipid, PEG-DMG as a PEG lipid, an RNA, and a compound above mentioned were prepared according to or via methods similar to those described in Examples 1 and 2. The ratios of the lipids were 50:10:38.5:1.5 mol % for the lipid of the present invention: DSPC: cholesterol: PEG-DMG. 5 μg of LNP solution containing luciferase mRNA was administered intramuscularly to Balb/C mice (n=3). 6 hours after administration, mice were injected intraperitoneally with 0.15 mg/kg of D-luciferin substrate. Within 15 minutes after the injection of the substrate, the fluorescence signal intensity in injection site and liver site were tested under a small animal in vivo imaging instrument. Tables 3-4 summarize the fluorescence signal intensity of the nanoparticle compositions including present invention lipids and the reference compounds in injection site and liver site.

PDI ([1]; phospholipid DAPC): 0.27 ± 0.01 | Zeta potential ([1]; phospholipid DAPC): −2.21 ± 0.53 mV | Size ([1]; phospholipid DAPC): 96.3 ± 2.2 nm | PDI ([1]; phospholipid DMPE): 0.20 ± 0.03 | Zeta potential ([1]; phospholipid DMPE): 0.01 ± 0.35 mV | Size ([1]; phospholipid DMPE): 139.8 ± 1.1 nm | PDI ([1]; phospholipid DOPE): 0.17 ± 0.03 | Zeta potential ([1]; phospholipid DOPE): 5.06 ± 0.15 mV | Size ([1]; phospholipid DOPE): 159.87 ± 3.7 nm | PDI ([1]; phospholipid DPPC): 0.22 ± 0.02 | Zeta potential ([1]; phospholipid DPPC): −1.23 ± 1.43 mV | Size ([1]; phospholipid DPPC): 98.7 ± 1.7 nm | PDI ([1]; phospholipid DPPE): 0.17 ± 0.03 | Zeta potential ([1]; phospholipid DPPE): −0.29 ± 0.31 mV | Size ([1]; phospholipid DPPE): 98.4 ± 2.7 nm | PDI ([1]; phospholipid DSPC): 0.22 ± 0.03 | Zeta potential ([1]; phospholipid DSPC): −1.18 ± 1.18 mV | Size ([1]; phospholipid DSPC): 98.5 ± 1.5 nm | PDI ([1]; phospholipid DSPE): 0.17 ± 0.03 | Zeta potential ([1]; phospholipid DSPE): −9.60 ± 2.10 mV | Size ([1]; phospholipid DSPE): 116.3 ± 0.2 nm
Structure (SMILES): CCCCCCCCC(CCCCCCCC)OC(=O)CCCCCCCN(CCO)CCCCCCCC(=O)OCCc1ccc(CCCCCCC)cc1 [SW-II-121]
Viability (%) ([2]; phospholipid DAPC): 111.1% | Viability (%) ([2]; phospholipid DMPE): 108.5% | Viability (%) ([2]; phospholipid DOPE): 107.5% | Viability (%) ([2]; phospholipid DPPC): 109.64% | Viability (%) ([2]; phospholipid DPPE): 108.0% | Viability (%) ([2]; phospholipid DSPC): 123.3% | Viability (%) ([2]; phospholipid DSPE): 137.0% | C2C12 cell, in vitro expression ([3]; phospholipid DAPC): 24183 | C2C12 cell, in vitro expression ([3]; phospholipid DMPE): 219379.5 | C2C12 cell, in vitro expression ([3]; phospholipid DOPE): 1003834.5 | C2C12 cell, in vitro expression ([3]; phospholipid DPPC): 93988 | C2C12 cell, in vitro expression ([3]; phospholipid DPPE): 246921 | C2C12 cell, in vitro expression ([3]; phospholipid DSPC): 93333 | C2C12 cell, in vitro expression ([3]; phospholipid DSPE): 41556.5 | A20 cell, in vitro expression ([4]; phospholipid DAPC): 1744.5 | A20 cell, in vitro expression ([4]; phospholipid DMPE): 9110.5 | A20 cell, in vitro expression ([4]; phospholipid DOPE): 4244.5 | A20 cell, in vitro expression ([4]; phospholipid DPPC): 9098 | A20 cell, in vitro expression ([4]; phospholipid DPPE): 27832 | A20 cell, in vitro expression ([4]; phospholipid DSPC): 8006.5 | A20 cell, in vitro expression ([4]; phospholipid DSPE): 508.5 | In vivo expression ([5]; phospholipid DAPC): 156336666.7 p/sec/cm^2/sr | In vivo expression ([5]; phospholipid DMPE): 78216666.7 p/sec/cm^2/sr | In vivo expression ([5]; phospholipid DOPE): 47516666.7 p/sec/cm^2/sr | In vivo expression ([5]; phospholipid DPPC): 36323333.3 p/sec/cm^2/sr | In vivo expression ([5]; phospholipid DPPE): 46183333.3 p/sec/cm^2/sr | In vivo expression ([5]; phospholipid DSPC): 12494333.3 p/sec/cm^2/sr | In vivo expression ([5]; phospholipid DSPE): 19344666.7 p/sec/cm^2/sr | Luc expression in liver site compared with injection site (FIG. 2) [6]: higher than that in injection site | in vivo Luc expressions (FIG. 2) ([6]; compared with MC3): higher than that of MC3 | Luc expression in injection site, I.M. injection site, 6 h (ratio relative to SW-II-134-3 set as 1) [7]: 1.440 | Luc expression in liver site, Liver site upon I.M., 6 h (ratio relative to SW-II-137-1 set as 1) [7]: 2.150
